Measured values taken from US4517311A, “2'-Substituted-spiro[benzofuran-2(3H),1'-cycloalkanes] and their analgesic and anti-depressant compositions” (Hoechst-Roussel Pharmaceuticals Inc., priority 1982, dated 1985).
Where a name gives a salt, the structure may show the parent alone. Read-outs that look alike come from different tables or passages of the source.

What was measured:
[1] = test system: tetrabenazine-induced depression in mice; assay: Antidepressant activity (inhibition of tetrabenazine induced ptosis / tetrabenazine-induced depression); assay type: in vivo; conditions: for ED50: Mus musculus
Method: (§1) The antidepressant and analgesic activities of various spiro compounds having the formula [drawing 32] where X is hydrogen, chlorine or bromine and m is 1 or 2, taken as representative of a lower class of compounds having the formula I are presented in Table 1. The data presented therein were determined in accordance with the above described procedures.
1. Antidepressant activity (as measured by inhibition of
tetrabenazine induced ptosis).
3. Anti-depressant activity (as measured by inhibition
tetrabenazine induced ptosis)

[2] = test system: phenylquinone writhing in mice; assay: Analgesic activity (phenylquinone writhing test); assay type: in vivo, male, CD-1 mice; conditions: for ED50: Mus musculus, sc, Table 1 part 2, estimated by computer linear regression analysis; for % Inhibition (analgesic activities, phenylquinone writhing test): 20 mg/kg, subcutaneously (sc), Table 1 part 4
Method: This produces a characteristic "writhe" which is defined as an inward rotation of one or more feet with twisting and turning of the trunk, drawing in of the abdominal wall, lordosis and arching of the back.
A total of 28 male, CD-1 mice (18 to 30 grams) are employed for a time response. Animals receive food and water ad libitum. Drugs to be tested are prepared with distilled water, and if insoluble, one drop of a suitable surfactant is added.
Twenty animals (5/group) are administered the drug subcutaneously (sc) 15, 30, 45 and 60 minutes prior to phenylquinone injection. Control animals (2/group) receive an equal amount of vehicle. After the administration of phenylquinone, the mice are placed separately into one-liter beakers and 5 minutes are allowed to elapse. The mice are then observed for a period of 10 minutes and the number of writhes are recorded for each animal. The formula for computing percent inhibition is: [formula]
The time period with the greatest percent of inhibition is considered the peak time.
A dose range is run in the same fashion as a time response except ten animals per group are tested at the peak time of drug activity. Fifty animals, four drug groups, and a vehicle control are employed. Animals are dosed and tested in a randomized manner. An estimated ED50 is calculated by a computer linear regression analysis.
as §1
2. Analgesic activities (as measured in the
phenylquinone writhing test).

[3] = po, Table 1 part 1, read-out: ED50 (antidepressant activity, inhibition of tetrabenazine induced ptosis)

SMILES	ED50 [1, 3] [mg/kg]	also measured
CN(C)C[C@@H]1CCCC[C@]12Cc1c(Cl)cccc1O2 (relative stereo) [4-chloro Me trans 1, (1'α2'β)-2'-Dimethylaminomethylspiro[4-chlorobenzofuran-2(3H),1'-cyclohexane]Hydrochloride]	5.7	
CN(C)C[C@@H]1CCCC[C@@]12Cc1cc(Cl)c(Cl)cc1O2 (relative stereo) [5,6-dichloro Me cis 1, (1'β,2'β)-2'-Dimethylaminomethylspiro[5,6-dichlorobenzofuran-2(3H),1'-cyclohexane]Hydrochloride]	3.46	
CN(C)C[C@@H]1CCCC[C@@]12Cc1cc(Br)ccc1O2 (relative stereo) [5-bromo Me cis 1, (1'β,2'β)-2'-Dimethylaminomethylspiro[5-bromobenzofuran-2(3H),1'-cyclohexane]Hydrochloride]	4.73	
CCN(CC)C[C@@H]1CCCC[C@@]12Cc1cc(Cl)ccc1O2 (relative stereo) [5-chloro Et cis 1, (1'β,2'β)-2'-Diethylaminomethylspiro[5-chlorobenzofuran-2(3H),1'-cyclohexane]Hydrochloride]	4.73	
CN(C)C[C@@H]1CCCC[C@@]12Cc1cc(Cl)ccc1O2 (relative stereo) [5-chloro Me cis 1, (1'β,2'β)-2'-Dimethylaminomethylspiro[5-chlorobenzofuran-2(3H),1'-cyclohexane]Hydrochloride]	1.5	ED50 [2]: 4.96 mg/kg
CN(C)C[C@@H]1CCCC[C@]12Cc1cc(Cl)ccc1O2 (relative stereo) [5-chloro Me trans 1, (1'α,2'β)-2'-Dimethylaminomethylspiro[5-chlorobenzofuran-2(3H),1'-cyclohexane]Hydrochloride]	1.39	
CN(C)C[C@@H]1CCCC[C@]12Cc1ccc(Cl)cc1O2 (relative stereo) [6-chloro Me trans 1, (1'α,1'β)-2'-Dimethylaminomethylspiro[6-chlorobenzofuran-2(3H),1'-cyclohexane]Hydrochloride]	0.42	
CN(C)C[C@@H]1CCC[C@@]12Cc1cc(Br)ccc1O2 (relative stereo) [(1'β,2'β)-2'-dimethylaminomethylspiro[5-bromobenzofuran-2(3H),1'-cyclopentane]hydrochloride]		ED50 ([1]; (po) [orally], Table 1 part 3, read-out: 50% Inhibition (ED50), anti-depressant activity, inhibition of tetrabenazine induced ptosis): 17.3 mg/kg; % Inhibition (analgesic activities, phenylquinone writhing test) [2]: 53%
CN(C)C[C@@H]1CCC[C@@]12Cc1cc(Cl)ccc1O2 (relative stereo) [(1'β,2'β)-2'-dimethylaminomethylspiro[5-chlorobenzofuran-2(3H),1'-cyclopentane]hydrochloride]		% Inhibition (analgesic activities, phenylquinone writhing test) [2]: 40%
CN(C)C[C@@H]1CCC[C@@]12Cc1ccccc1O2 (relative stereo) [(1'β,2'β)-2'-dimethylaminomethylspiro[benzofuran-2(3H),1'-cyclopentane]hydrochloride]		% Inhibition (anti-depressant activity, inhibition of tetrabenazine induced ptosis) ([1]; 20 mg/kg intraperitoneal, Table 1 part 3): 53%; % Inhibition (analgesic activities, phenylquinone writhing test) [2]: 37%
CN(C)C[C@@H]1CCCC[C@@]12Cc1ccccc1O2 (relative stereo) [H Me cis 1, (1'β,2'β)-2'-Dimethylaminomethylspiro[benzofuran-2(3H),1'-cyclohexane]Hydrochloride]		ED50 [2]: 5.98 mg/kg
CN(C)C[C@@H]1CCCC[C@]12Cc1ccccc1O2 (relative stereo) [H Me trans 1, (1'β,2'β)-2'-Dimethylaminomethylspiro[benzofuran-2(3H),1'-cyclohexane]Hydrochloride]	3	ED50 [2]: 2.9 mg/kg
